Test results published in PMC8388802, “Study on the Structure-Activity Relationship of an Antimicrobial Peptide, Brevinin-2GUb, from the Skin Secretion of Hylarana guentheri” (Antibiotics, 2021).
Values after ≈ are worked out from the molar mass of the structure shown. Where a SMILES comes first, the peptide text is derived from it.

What was measured:
E. coli (ATCC CRM 8739) = type: cell-based, Escherichia coli
Method: (§1) The method of antimicrobial assay is based on the Methods for Dilution Antimicrobial Susceptibility Tests for Bacteria that Grow Aerobically from the Clinical and Laboratory Standards Institute (CLSI).The antimicrobial activities of peptides were evaluated against Gram-positive bacteria S. aureus (ATCC 6538), MRSA (NCTC 12493), E. faecalis (NCTC 12493), Gram-negative bacteria E. coli (ATCC CRM 8739), K. pneumoniae (ATCC 43816), P. aeruginosa (ATCC CRM 9027), yeast C. albicans (ATCC CRM 10231) and clinical isolates MRSA (B042 V2E1 A), E. coli (ATCC BAA-2340), K. pneumoniae (ATCC BAA-1705), P. aeruginosa (B004 V2S2 B).
(§2) At the first stage of the assay, 20 μL bacteria were cultured in 100 mL Mueller Hinton Broth (MHB) or Yeast Extract–Peptone–Dextrose broth (YPD-B), respectively, and was incubated overnight. Then, microorganisms were subcultured in 20 mL fresh MHB or YPD-B to achieve cultures in the logarithmic phase (1 × 10^8 CFU/mL), which can be verified by optical density (OD) (The OD of Gram-positive bacteria is 0.23, OD of Gram-negative bacteria is 0.4, and OD of yeast is 0.15), and viable cell counts. Then, the medium was used to dilute the cultures to specific cell densities (Gram-negative and Gram-positive bacteria: 5 × 10^5 CFU/mL; yeast: 1 × 10^6 CFU/mL), which were the final concentrations of bacterial suspensions used in the assay. The peptides were dissolved in DMSO to reach a final concentration of 512 µM. A series of two-fold dilutions ranging from 512 µM to 1 µM were dosed in the 96-well plates.
(§3) Antimicrobial assays were conducted in 96-well plates, which were divided into five groups, including a negative control group (PBS), a positive control group (20 μg/mL norfloxacin for bacteria and 10 μg/mL amphotericin B for yeast), vehicle control (1% DMSO), blank control (MHB or YPD-B), and a peptide group. Each microorganism had five repetitions, and each well contained 1 µL corresponding solution and 99 µL culture. After incubation at 37 °C overnight, the absorbance of each well was tested by a microplate reader (EL808, Biolise BioTek Winooski, Minneapolis, USA) under a 550 nm wavelength. The MIC is the lowest concentration at which no bacterial growth can be observed.
(§4) The next day, 10 µL of every clear well was taken out to be cultured on a Mueller Hinton Agar (MHA) plate and incubated at 37 °C for 16–20 h. The MBC is the lowest concentration without any bacterial colonies, which means at this concentration, the peptide reduces the viability of the pathogen by more than 99.9%.

[1] = tested on: S. aureus (ATCC 6538) biofilm; type: cell-based, Staphylococcus aureus; conditions: ATCC 6538, 24 h
Method: (§5) The anti-biofilm activities of the peptides against S. aureus (ATCC 6538), MRSA (NCTC 12493), E. faecalis (NCTC 12493), E. coli (ATCC CRM 8739), K. pneumoniae (ATCC 43816), and P. aeruginosa (ATCC CRM 9027) were evaluated.
(§6) The bacteria were inoculated in a different medium (Gram-positive bacteria were in TSB and Gram-negative bacteria were in LB) overnight, and the subculture was conducted in the same medium. When the bacteria reached a specific density, 100 µL of the dilution was added to each well of the 96-well microplate. Then 1 µL of peptide at a series of concentrations, the same concentration in the antimicrobial assay, were added into the well together with the bacteria. The plates were put into a moist shaking incubator with a speed of 200 rpm, and the temperature was set at 37 ℃. After a 24-h incubation, the liquid in the wells was aspirated, and each was washed twice by 100 µL PBS. One hundred µL of methanol were added into each well to stabilise the biofilm. After air-drying, 100 µL crystal violet was used to dye the biofilm, and they were dissolved in the 100 µL glacial acidic acid after drying. The solutions were transferred to a new microplate, and the absorbance of each well was tested by a microplate reader (EL808, Biolise BioTek Winooski, Minneapolis, MN, USA) at 595 nm wavelength. MBIC was the minimum concentration of the peptide showing no biofilm formation.
(§7) The bacteria were inoculated in a different medium (Gram-positive bacteria were in TSB and Gram-negative bacteria were in LB) overnight, and the subculture was conducted in the same medium. When the bacteria reached a specific density, 100 µL of the dilution was added to each well of the 96-well microplates. The plates were put into a moist shaking incubator with a speed of 200 rpm and the temperature was 37 ℃. After a 24 h incubation, the liquid in the wells was aspirated and they were washed twice by 100 µL PBS of each well. The peptides with the same concentrations were diluted in the corresponding medium and 100 µL were added into each well. After a 24-h incubation, the liquid in the wells was aspirated and they were washed twice by 100 µL PBS. One hundred µL of methanol were added into the wells to stabilise the biofilms. After being air-dried, 100 µL crystal violet was used to dye the biofilm, and they were dissolved in the 100 µL glacial acidic acid after drying. The solutions were transferred to a new microplate, and the absorbance of each well was tested by a microplate reader (EL808, Biolise BioTek Winooski, Minneapolis, USA) at 595 nm wavelength.

[2] = tested on: K. pneumoniae (ATCC BAA-1705); type: cell-based, Klebsiella pneumoniae
Method: as §1, §2, §3, §4

[3] = tested on: K. pneumoniae (ATCC 43816); type: cell-based, Klebsiella pneumoniae
Method: as §1, §2, §3, §4

[4] = tested on: E. coli (ATCC CRM 8739) biofilm; type: cell-based, Escherichia coli; conditions: ATCC CRM 8739, 24 h
Method: as §5, §6, §7

MRSA (B042 V2E1 A) = type: cell-based, Methicillin-resistant Staphylococcus aureus
Method: as §1, §2, §3, §4

[5] = tested on: E. faecalis (NCTC 12493) biofilm; type: cell-based, Enterococcus faecalis; conditions: NCTC 12493, 24 h
Method: as §5, §6, §7

[6] = tested on: C. albicans (ATCC CRM 10231); type: cell-based, Candida albicans
Method: as §1, §2, §3, §4

[7] = tested on: P. aeruginosa (ATCC CRM 9027); type: cell-based, Pseudomonas aeruginosa
Method: as §1, §2, §3, §4

[8] = tested on: P. aeruginosa (B004 V2S2 B); type: cell-based, Pseudomonas aeruginosa
Method: as §1, §2, §3, §4

MIC (E. coli (ATCC CRM 8739)) [µM] | MIC [2] [µM] | MIC [3] [µM] | MIC (MRSA (B042 V2E1 A)) [µM] | MIC [6] [µM] | MIC [7] [µM] | MIC [8] [µM] | Compound | MBC (E. coli (ATCC CRM 8739)) [µM] | MBEC [1] | MBIC [1] | MBC [2] [µM] | MBC [3] [µM] | MBEC [4] [µM] | MBIC [4] [µM] | MBC (MRSA (B042 V2E1 A)) [µM] | MBEC [5] [µM] | MBIC [5] [µM] | MBC [6] [µM] | MBC [7] [µM] | MBC [8] [µM]
2 (≈ 3.9 µg/mL) | 128 (≈ 249 µg/mL) | 32 (≈ 62.4 µg/mL) | 256 (≈ 499 µg/mL) | 256 (≈ 499 µg/mL) | 16 (≈ 31.2 µg/mL) | 64 (≈ 125 µg/mL) | CC[C@H](C)[C@H](NC(=O)[C@@H](NC(=O)CN)C(C)C)C(=O)N[C@H](C(=O)N[C@@H](CCCCN)C(=O)N[C@@H](CCCCN)C(=O)N[C@@H](CC(C)C)C(=O)N[C@@H](CCCCN)C(=O)NCC(=O)N[C@@H](C)C(=O)N[C@@H](C)C(=O)N[C@@H](CCCCN)C(=O)N[C@@H](CCCCN)C(=O)N[C@H](C(=O)N[C@@H](C)C(=O)N[C@@H](C)C(=O)N[C@@H](CCCCN)C(=O)N[C@@H](CC(C)C)C(=O)N[C@@H](CC(C)C)C(N)=O)C(C)C)[C@@H](C)CC [tB2U-6K] (H-GVIIKKLKGAAKKVAAKLL-NH2) | 2 (≈ 3.9 µg/mL) | > 512 µM | 64 µM | 128 (≈ 249 µg/mL) | 32 (≈ 62.4 µg/mL) | > 512 | 2 | 256 (≈ 499 µg/mL) | > 512 | 64 | 256 (≈ 499 µg/mL) | 16 (≈ 31.2 µg/mL) | 64 (≈ 125 µg/mL)
>512 | >512 | >512 | >512 | >512 | >512 | >512 | CC[C@H](C)[C@H](NC(=O)[C@@H](NC(=O)CN)C(C)C)C(=O)N[C@H](C(=O)N[C@@H](CCCCN)C(=O)N[C@H](C(=O)N[C@@H](CC(C)C)C(N)=O)[C@@H](C)O)[C@@H](C)CC [Peptide 7-tB2U-K] (H-GVIIKTL-NH2) | >512 | 512/>512 μM | 512/>512 μM | >512 | >512 | >512 | >512 | >512 | >512 | >512 | >512 | >512 | >512
8 (≈ 15.2 µg/mL) | 128 (≈ 242 µg/mL) | 128 (≈ 242 µg/mL) | >512 | 64 (≈ 121 µg/mL) | 32 (≈ 60.6 µg/mL) | >512 | CC[C@H](C)[C@H](NC(=O)[C@@H](NC(=O)CN)C(C)C)C(=O)N[C@H](C(=O)N[C@@H](CCCCN)C(=O)N[C@H](C(=O)N[C@@H](CC(C)C)C(=O)N[C@@H](CCCCN)C(=O)NCC(=O)N[C@@H](C)C(=O)N[C@@H](C)C(=O)N[C@@H](CCCCN)C(=O)N[C@H](C(=O)N[C@H](C(=O)N[C@@H](C)C(=O)N[C@@H](C)C(=O)N[C@@H](CCCCN)C(=O)N[C@@H](CC(C)C)C(=O)N[C@@H](CC(C)C)C(N)=O)C(C)C)[C@@H](C)O)[C@@H](C)O)[C@@H](C)CC [tB2U-K] (H-GVIIKTLKGAAKTVAAKLL-NH2) | 8 (≈ 15.2 µg/mL) | > 512 µM | 16 µM | 128 (≈ 242 µg/mL) | 128 (≈ 242 µg/mL) | > 512 | 16 | >512 | > 512 | 32 | 64 (≈ 121 µg/mL) | 32 (≈ 60.6 µg/mL) | >512
>512 | >512 | >512 | >512 | >512 | >512 | >512 | CC[C@H](C)[C@H](NC(=O)[C@@H](NC(=O)CN)C(C)C)C(=O)N[C@H](C(=O)N[C@@H](CC(=O)O)C(=O)N[C@H](C(=O)N[C@@H](CC(C)C)C(=O)N[C@@H](CCCCN)C(=O)NCC(=O)N[C@@H](C)C(=O)N[C@@H](C)C(=O)N[C@@H](CCCCN)C(=O)N[C@H](C(=O)N[C@H](C(=O)N[C@@H](C)C(=O)N[C@@H](C)C(=O)N[C@@H](CCC(=O)O)C(=O)N[C@@H](CC(C)C)C(=O)N[C@@H](CC(C)C)C(N)=O)C(C)C)[C@@H](C)O)[C@@H](C)O)[C@@H](C)CC [tB2U-α] (H-GVIIDTLKGAAKTVAAELL-NH2) | >512 | >512 µM | >512 µM | >512 | >512 | >512 | >512 | >512 | >512 | >512 | >512 | >512 | >512
128 (≈ 304 µg/mL) | >512 | 512 (≈ 1220 µg/mL) | >512 | >512 | >512 | >512 | CC[C@H](C)[C@H](NC(=O)[C@@H](NC(=O)CN)C(C)C)C(=O)N[C@H](C(=O)N[C@@H](CC(=O)O)C(=O)N[C@H](C(=O)N[C@@H](CC(C)C)C(=O)N[C@@H](CCCCN)C(=O)NCC(=O)N[C@@H](C)C(=O)N[C@@H](C)C(=O)N[C@@H](CCCCN)C(=O)N[C@H](C(=O)N[C@H](C(=O)N[C@@H](C)C(=O)N[C@@H](C)C(=O)N[C@@H](CCC(=O)O)C(=O)N[C@@H](CC(C)C)C(=O)N[C@@H](CC(C)C)C(=O)N[C@@H](CCCNC(=N)N)C(=O)N[C@@H](CCCCN)C(=O)N[C@@H](C)C(=O)N[C@@H](Cc1c[nH]cn1)C(N)=O)C(C)C)[C@@H](C)O)[C@@H](C)O)[C@@H](C)CC [tB2U] (H-GVIIDTLKGAAKTVAAELLRKAH-NH2) | 128 (≈ 304 µg/mL) | >512 µM | >512 µM | >512 | > 512 | >512 | >512 | >512 | > 512 | 256 | >512 | >512 | >512
